{"source": "ChEMBL document CHEMBL1121467", "about": "“Prostaglandins and congeners. 25. Inhibition of gastric acid secretion. Replacement of the carboxylate moiety of a prostaglandin with a hydroxymethylketo functional group” (1980)", "key": {"[1]": {"test_system": "Canis familiaris", "assay": "Inhibition of gastric acid secretion (cumulative 75 min) in the dog fistula preparation was measured as acid output, after intragastric administration of 10 ug/kg", "format": "functional, Canis lupus familiaris, Stomach"}, "[2]": {"test_system": "Canis familiaris", "assay": "Inhibition of gastric acid secretion (cumulative 75 min) in the dog fistula preparation was measured as total volume, after intragastric administration of 10 ug/kg", "format": "functional, Canis lupus familiaris, Stomach"}}}
{"compound": "CCCCC(C)(O)C/C=C/C1[C@H](O)CC(=O)[C@@H]1CCCCCCC(=O)CO", "note": "(some centres undefined)", "values": [{"measurement": "Acid output", "setting": "[1]", "result": "6.9 m equiv [H+] l-1"}, {"measurement": "Volume", "setting": "[2]", "result": 59, "unit": "mL"}]}
{"compound": "CCCCC(C)(O)C/C=C/C1[C@H](O)CC(=O)[C@@H]1C/C=C/CCCC(=O)CO", "note": "(some centres undefined)", "values": [{"measurement": "Acid output", "setting": "[1]", "result": "7.5 m equiv [H+] l-1"}, {"measurement": "Volume", "setting": "[2]", "result": 76, "unit": "mL"}]}
